Among the data in US11591297B2, “Compound having PD-L1 expression-suppressing action” (TOHOKU UNIVERSITY, priority 2019, dated 2023) are activity values, retold here.

For this experiment, the system named is human IL-2 promoter. The experiment is described as follows: IL-2luc activity (luciferase under control of IL-2 promoter) of Jurkat cells co-cultured with IFN-γ-treated A549 cells. It is filed as cell-based. The conditions noted are these: control (DMSO) IFN-γ(−) defined as 100%, control IFN-γ(+) 54.5. The protocol: The pIL-2luc obtained by the insertion of a human IL-2 promoter sequence (−945 to 53) into the multiple cloning site of pGL-3 vector basic (Promega) was preliminarily transfected into Jurkat cells. PMA and PHA-L were added into the Jurkat cells and the cells were pre-cultured. Simultaneously, IFN-γ was added into A549 cells and the cells were pre-cultured. The supernatants of each culture liquid at the time of the pre-culture of each cell were removed, the culture liquids were co-cultured in new medium. The luciferase activity of the co-cultured Jurkat cells was measured. Each test compound was added into the A549 cell culture liquid during the pre-culture.
A549 cells were suspended in DMEM medium at a concentration of 3×10^5 cells/mL to prepare a suspension, and the suspension was dispensed into a T25 flask in an amount of 5 mL and cultured
Separately, 5 μg of pIL-2luc DNA and 15 μL of TransIT-Jurkat reagent (Takara Bio: Cat #V2124) were added into 500 μL of serum-free medium, and the medium was allowed to stand at room temperature for 15 minutes. […]
LAS in Luciferase Assay System was dissolved in LAB to prepare a luciferase reagent. 10 μL of the sample was mixed with 50 μL of the luciferase reagent, and the chemiluminescence (Relative Luminescence Intensity: RLU) of the sample was measured using GloMax20/20 (Promega). […]

Where the note is “0.5 μM”, `O=C(Nc1ccc(Oc2ccc(S(F)(F)(F)(F)F)cc2)cc1)C1CCCN(C(=O)c2ccc([N+](=O)[O-])cc2)C1` (centres unmarked) [Example 5, 1-(4-Nitrobenzoyl)-N-(4-(4-(pentafluorosulfanyl)phenoxy)phenyl)piperidine-3-carboxamide] returned an activity at 0.5 µM of 63.5%. The activity at 1 µM (1 μM) turned out to be 85.9%.
